Measurements published in patent US4652575A, “2-(ethylene-thio methyl furanyl)amino thiazole derivatives having acid secretion inhibiting activity” (Medosan Industrie Biochimiche Riunite S.p.A., priority 1984, dated 1987).
Where two headings read alike, the source gives them in different places.

Tests used:
gastric secretion = assay: Activity on gastric secretion "in vivo" (volume and total acidity of gastric juice after pylorus tieing, Shay); parameters: species or system male Wistar rats; conditions: for Total acidity gastric juice secretion / Volume gastric juice secretion / change in vivo at 20 mg/kg: 20 mg/kg oral
histamine H2 receptors [1] = biological target: T1, histamine H2 receptors (Cavia porcellus, UniProt P47747); assay: Antagonistic activity to the histamine H2 receptors "in vitro" on insulated atrium auricolas of Guinea pig heart; conditions: guinea pig, 0.5 h; for inhibition at 10 µM: read-out: Antagonizing activity to histamine H2 receptors, compound 1·10^-5 M/L; for inhibition at 1 µM: read-out: Antagonizing activity to histamine H2 receptors, compound 1·10^-6 M/L; for inhibition at 0.1 µM: read-out: Antagonizing activity to histamine H2 receptors, compound 1·10^-7 M/L
T1 construct: tests on insulated atrium auricolas of Guinea pig heart; from tissue; host or cells: isolated guinea pig heart atrium
T1 sequence (P47747 whole entry): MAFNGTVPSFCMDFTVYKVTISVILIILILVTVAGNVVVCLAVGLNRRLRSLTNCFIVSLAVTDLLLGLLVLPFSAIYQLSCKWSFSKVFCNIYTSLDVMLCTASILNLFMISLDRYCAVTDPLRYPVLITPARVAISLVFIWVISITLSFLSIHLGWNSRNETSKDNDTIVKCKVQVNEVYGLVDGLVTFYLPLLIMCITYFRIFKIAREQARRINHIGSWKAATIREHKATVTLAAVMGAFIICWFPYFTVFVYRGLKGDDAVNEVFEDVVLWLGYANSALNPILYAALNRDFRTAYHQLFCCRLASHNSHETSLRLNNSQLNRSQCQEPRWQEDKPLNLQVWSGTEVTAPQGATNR

histamine H2 receptors [2] = biological target: T1, histamine H2 receptors; conditions: Daly M. J., Br. J. Pharmac., 72, 49, 1982; cited from earlier work
gastric acid secretion = conditions: experimental tests on animals and humans; prior art; cited from earlier work
[3] = Acute toxicity (DL50) in rat; conditions: in vivo, po
From the text: The animals were kept under observation by checking mortality and possible pain signs for 15 days from start of test.

In the case of CNC(=C[N+](=O)[O-])NCCSCc1ccc(CN(C)C)o1 [Ranitidine, reference compound], the “Total acidity gastric juice secretion” value (gastric secretion; 6 hours before pilorus tieing) is reported as 0,12 mEq/4 hours, the “Volume gastric juice secretion” value (gastric secretion; 6 hours before pilorus tieing) is reported as 4,8 ml/4 hours and the “Total acidity gastric juice secretion” value (gastric secretion; 12 hours before pilorus tieing) is reported as 0,16 mEq/4 hours. For the same molecule, the “Volume gastric juice secretion” value (gastric secretion; 12 hours before pilorus tieing) was 4,9 ml/4 hours, the “Total acidity gastric juice secretion” value (gastric secretion; 24 hours before pilorus tieing) was 0,17 mEq/4 hours and the “Volume gastric juice secretion” value (gastric secretion; 24 hours before pilorus tieing) was 5,3 ml/4 hours. For the same molecule, the “Total acidity gastric juice secretion” value (gastric secretion; 36 hours before pilorus tieing) was 0,16 mEq/4 hours, the “Volume gastric juice secretion” value (gastric secretion; 36 hours before pilorus tieing) was 5,4 ml/4 hours and the change in vivo at 20 mg/kg (gastric secretion; Rattus norvegicus, po, 6 hours before pilorus tieing, read-out: Total acidity gastric juice secretion, Variation %) was -29%. It also gave a change in vivo at 20 mg/kg (gastric secretion; Rattus norvegicus, po, 6 hours before pilorus tieing, read-out: Volume gastric juice secretion, Variation %) of -9%, a change in vivo at 20 mg/kg (gastric secretion; Rattus norvegicus, po, 12 hours before pilorus tieing, read-out: Total acidity gastric juice secretion, Variation %) of 6% and a change in vivo at 20 mg/kg (gastric secretion; Rattus norvegicus, po, 12 hours before pilorus tieing, read-out: Volume gastric juice secretion, Variation %) of -4%. For the same molecule, the change in vivo at 20 mg/kg (gastric secretion; Rattus norvegicus, po, 24 hours before pilorus tieing, read-out: Total acidity gastric juice secretion, Variation %) was 0%, the change in vivo at 20 mg/kg (gastric secretion; Rattus norvegicus, po, 24 hours before pilorus tieing, read-out: Volume gastric juice secretion, Variation %) was -5% and the change in vivo at 20 mg/kg (gastric secretion; Rattus norvegicus, po, 36 hours before pilorus tieing, read-out: Total acidity gastric juice secretion, Variation %) was 0%. The change in vivo at 20 mg/kg (gastric secretion; Rattus norvegicus, po, 36 hours before pilorus tieing, read-out: Volume gastric juice secretion, Variation %) was -3%, the ED50 (gastric secretion; Rattus norvegicus, po, per os, 1 hour before pilorus tieing, read-out: DE50 in rat calculated on total acidity (mEq/4 hours)) was 5.2 mg/kg and the inhibition at 10 µM (histamine H2 receptors [1]; histamine 1·10^-5 M/L) was 90%. For the same molecule, the inhibition at 10 µM (histamine H2 receptors [1]; histamine 1·10^-6 M/L) was 100%, the inhibition at 10 µM (histamine H2 receptors [1]; histamine 2,5·10^-7 M/L) was 100% and the inhibition at 10 µM (histamine H2 receptors [1]; histamine 5·10^-6 M/L) was 95%. The inhibition at 10 µM (histamine H2 receptors [1]; histamine 5·10^-7 M/L) was 100%, the inhibition at 1 µM (histamine H2 receptors [1]; histamine 1·10^-5 M/L) was 36% and the inhibition at 1 µM (histamine H2 receptors [1]; histamine 1·10^-6 M/L) was 97%. For the same molecule, the inhibition at 1 µM (histamine H2 receptors [1]; histamine 2,5·10^-7 M/L) was 100%, the inhibition at 1 µM (histamine H2 receptors [1]; histamine 5·10^-6 M/L) was 67% and the inhibition at 1 µM (histamine H2 receptors [1]; histamine 5·10^-7 M/L) was 100%. For the same molecule, the inhibition at 0.1 µM (histamine H2 receptors [1]; histamine 1·10^-5 M/L) was 2%, the inhibition at 0.1 µM (histamine H2 receptors [1]; histamine 1·10^-6 M/L) was 45% and the inhibition at 0.1 µM (histamine H2 receptors [1]; histamine 2,5·10^-7 M/L) was 85%. For the same molecule, the inhibition at 0.1 µM (histamine H2 receptors [1]; histamine 5·10^-6 M/L) was 25%, the inhibition at 0.1 µM (histamine H2 receptors [1]; histamine 5·10^-7 M/L) was 70% and the “antagonism of histamine induced increase of contraction frequency of the insulated atrium (in words)” value (histamine H2 receptors [2]) was “competitively antagonize”. For the same molecule, the “reduction of gastric acid secretion (in words)” value (gastric acid secretion) was “effective to reduce the gastric acid secretion”, the LD50 [3] was 2000 mg/kg and the LD50 at 360 h [3] was 1600 mg/kg.
